Experimental data reported in patent US7671230B2, “Derivatization and solubilization of insoluble classes of fullerenes” (TDA Research, Inc., priority 2001, dated 2010).
Blank lines part the entries; values can stand above or below the substance they belong to.

Key:
[1] = Solubility of fullerenic species and their derivatives in solvents; assay type: physicochemical; conditions: for solubility of derivative in organic solvents: common polar and non-polar organic solvents; for solubility class: both non-polar and polar solvents
Description: Insoluble fullerenes are any fullerenic species generated by any known method which are not soluble in solvents (common solvents, i.e., non-polar organic solvents, such as hydrocarbons and arenes and halogenated arenes, including toluene, benzene) commonly employed to solublize fullerenes, such as C60. Solubility (or lack thereof) of a given fullerenic species in a given solvent can be assessed by methods known in the art, e.g., by assessing how much of a fullerenic species can be extracted into a given amount of solvent, for example, using mass spectrometric methods as illustrated herein. The insoluble classes of fullerenes are also insoluble in polar solvents. […] Non-derivatized fullerenic species are in general not soluble in almost all polar solvents. However, fullerenic species, if soluble have an anomalously high solubility in polar chloro and bromo substituted arenes. As discussed herein and as is understood in the art certain classes of non-derivatized fullerenic species are soluble in non-polar solvents such as toluene and benzene.
The methods of this invention can be used to derivatize insoluble fullerenic species and related carbon nanotube species to make them soluble (or to enhance the solubility of given fullerenic species or carbon nanotubes). Derivatization reaction of this invention may render the derivatized species soluble (or enhance its solubility) in common non-polar solvents or it may render the derivatized species soluble (or enhance its solubility) in polar solvents. For purposes of this application, solubility is defined as the dissolution of free molecules (or salts) in the solvent with reversibility to remove the solvent to obtain the molecules (or salts) dissolved. In preferred cases, the solvent is readily removed by application of reduced pressure and/ or by non-destructive heating. A species may also be removed from solution by recrystallization, for example by addition of solvent in which the species is not soluble to the solution. Certain solvents may readily dissolve a given species, but may not be removable to regenerate the species that was dissolved or it may not be possible to recrystallize the species unchanged. For example, the solvent may only be partially removable or the solvent may have reacted with the species causing a chemical change or irreversible adduct formation.
In general, fullerenes have “low solubility” in all solvents compared to most organic compounds. […] C60 is insoluble in polar solvents like acetonitrile and methanol (no measurable amount dissolves). […] C60 is soluble in substituted naphthalenes (30 to 50 mg/mL). […] As noted above, insoluble classes of fullerenic species are also insoluble in polar solvents.

[2] = Air/water stability of derivatized materials (long-term stability of solutions, re-dissolution of exposed solids); assay type: physicochemical; conditions: presence of oxygen and/or water; no evidence for decomposition over several months time
[3] = Aqueous-phase size-exclusion chromatography (SEC-HPLC), aggregation; assay type: physicochemical
Protocol: This derivatized metallofullerene, Gd@C60(C(COOCH2CH3)2)x, can be converted to a water-soluble species by de-esterification to carboxylic acid or carboxylate salt groups. This is performed by the method of Hirsch (Lamparth, 1994). The ester derivative (100 mg) is dissolved in toluene (15 mL) and vigorously stirred at reflux with excess solid NaH (100 mg) under argon for 2-3 hours. Next, methanol (3 mL) is added with stirring. Vigorous bubbling is observed, followed by precipitation of the sodium carboxylate salt of the Gd@C60 derivative. The solid is isolated, dissolved in water, and partially purified with dialysis tubing (MW cutoff˜500). The water is removed from an aqueous solution of the carboxylate with a rotary evaporator connected to a vacuum source; it is important to avoid decarboxylation by heating gently (<50° C.). Lowering the pH of aqueous solutions of the carboxylate salt can produce the acid form, which may have less water solubility depending on the number of acid groups present. […] Ion-exchange resin (Dowex-50, etc. etc.) can be used to change the counterion in Gd@C60(C(COONa)2)x to other alkali metals etc. or to hydrogen (proton) i.e. Gd@C60(C(COOH)2)x.

[4] = aqueous; compared with conventional inorganic chelates; cited from earlier work

Substance: C60(C33H48O12)
solubility of derivative in organic solvents [1]: solubility in a variety of common polar and non-polar organic solvents

Substance: Gd@C60
solubility class [1]: Insoluble

Substance: Gd@C60(C(COOCH2CH3)2)x
stability in air / oxygen and water [2]: air-stable | solubility of derivative in organic solvents [1]: solubility in a variety of common polar and non-polar organic solvents

Substance: Gd@C60(C(COONa)2)x
stability in air / oxygen and water [2]: air-stable | water solubility [1]: fully water-soluble | aggregation state in aqueous solution [3]: not clustered in large aggregates

Substance: Gd@C82(OH)x
R1 relaxivity [4]: higher R1 values

Substance: ^166Ho@C60(C(COOCH2CH3)2)x
solubility in THF after derivatization ([1]; tetrahydrofuran): soluble

Further lines, results first:

stability in air / oxygen and water [2]: air-stable
Substance: Gd@C60(C(COOH)2)x

solubility class [1]: Slightly Soluble
Substance: Gd@C82

water solubility [1]: water soluble
Substance: ^166Ho@C60(C(COONa)2)x
